Laboratory results as given in publication doi:10.1101/2025.07.28.666932v2, “Mechanism-Guided Engineering of Fluorinase Unlocks Efficient Nucleophilic Biofluorination” (biorxiv, 2026).

Biological target: T1, fluorinase FlA1 (Streptomyces sp., UniProt W0W999)
T1 construct: recombinant, overexpressed in Escherichia coli, purified
Test: global numerical fit of steady-state kinetics and mass photometry
Type: biochemical
Details: 75 mM KF, 50 mM HEPES, pH 7.8, 37 °C; competitive with fluoride; dissociation of the unproductive E·SAM complex

T1 sequence (W0W999 whole entry): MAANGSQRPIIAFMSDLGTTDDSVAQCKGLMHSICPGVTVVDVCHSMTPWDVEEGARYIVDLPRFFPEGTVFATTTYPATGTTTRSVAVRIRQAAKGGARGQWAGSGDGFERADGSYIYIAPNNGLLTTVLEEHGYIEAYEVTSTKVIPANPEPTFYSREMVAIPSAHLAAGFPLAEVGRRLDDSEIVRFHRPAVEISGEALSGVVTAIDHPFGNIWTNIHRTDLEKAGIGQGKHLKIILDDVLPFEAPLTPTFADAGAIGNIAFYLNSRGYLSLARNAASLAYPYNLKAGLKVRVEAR

## C[S+](CC[C@H](N)C(=O)O)C[C@H]1O[C@@H](n2cnc3c(N)ncnc32)[C@H](O)[C@@H]1O (stereo partly shown) [SAM]
  Ki,SAM: 1160 ± 80 nM
